Measured values from publication PMC7782168, “Synthesis, telomerase inhibitory and anticancer activity of new 2-phenyl-4H-chromone derivatives containing 1,3,4-oxadiazole moiety” (Journal of Enzyme Inhibition and Medicinal Chemistry, 2020).

Key:
[1] = tested on: human normal liver cell (L-02); test: Toxicity against human normal liver cells, MTT assay; format: cell-based; settings: triplicate
Method: (§1) A375, MDA-MB-231, MGC-803, SMMC-7721, SGC-7901 and L-02 cell lines were cultured in DMEM medium supplemented with 10% (V/V) heat-inactivated fetal bovine serum (FBS) (Biological Industries, Israel) along with 100 U/mL penicillin and […] streptomycin (Beyotime, China). Cells were grown in a humidified 5% CO2 atmosphere at 37 °C and maintained in a logarithmic growth phase for all experiments.
(§2) 2.5. Anticancer assay[23]
In order to determine the selective cytotoxicity of selected compounds, we subsequently conducted a proliferative inhibition assay with human normal liver cell (L-02). […] Therefore, in combination with the above points, it is quite meaningful to further explore the mechanisms of this compound.

[2] = tested on: SMMC-7721 (human hepatoma cell); test: In vitro anticancer (antiproliferative) MTT assay, SMMC-7721; format: cell-based
Method: as §1, §2

[3] = tested on: MDA-MB-231 (human breast cancer cell); test: In vitro anticancer (antiproliferative) MTT assay, MDA-MB-231; format: cell-based
Method: as §1, §2

[4] = tested on: SGC-7901 (human gastric cancer cell); test: In vitro anticancer (antiproliferative) MTT assay, SGC-7901; format: cell-based
Method: as §1, §2

[5] = tested on: MGC-803 (human gastric cancer cell); test: In vitro anticancer (antiproliferative) MTT assay, MGC-803; format: cell-based
Method: as §1, §2

[6] = tested on: A375 (human melanoma cell); test: In vitro anticancer (antiproliferative) MTT assay, A375; format: cell-based
Method: as §1, §2

telomerase = molecular target: T1, telomerase (Homo sapiens, UniProt O14746); test: Telomerase activity assay using MGC-803 cells extract; format: biochemical; settings: mean ± SD
T1 construct: assayed for telomerase activity using MGC-803 cells extract; endogenous in cells; host or cells: MGC-803 cell extract

[7] = Homo sapiens, SMMC-7721, mean ± SD of three experiments in triplicate
[8] = Homo sapiens, MDA-MB-231, mean ± SD of three experiments in triplicate
[9] = Homo sapiens, SGC-7901, mean ± SD of three experiments in triplicate
[10] = Homo sapiens, MGC-803, mean ± SD of three experiments in triplicate
[11] = Homo sapiens, A-375, mean ± SD of three experiments in triplicate
[12] = mean ± SD of three experiments in triplicate

T1 sequence (O14746 whole entry): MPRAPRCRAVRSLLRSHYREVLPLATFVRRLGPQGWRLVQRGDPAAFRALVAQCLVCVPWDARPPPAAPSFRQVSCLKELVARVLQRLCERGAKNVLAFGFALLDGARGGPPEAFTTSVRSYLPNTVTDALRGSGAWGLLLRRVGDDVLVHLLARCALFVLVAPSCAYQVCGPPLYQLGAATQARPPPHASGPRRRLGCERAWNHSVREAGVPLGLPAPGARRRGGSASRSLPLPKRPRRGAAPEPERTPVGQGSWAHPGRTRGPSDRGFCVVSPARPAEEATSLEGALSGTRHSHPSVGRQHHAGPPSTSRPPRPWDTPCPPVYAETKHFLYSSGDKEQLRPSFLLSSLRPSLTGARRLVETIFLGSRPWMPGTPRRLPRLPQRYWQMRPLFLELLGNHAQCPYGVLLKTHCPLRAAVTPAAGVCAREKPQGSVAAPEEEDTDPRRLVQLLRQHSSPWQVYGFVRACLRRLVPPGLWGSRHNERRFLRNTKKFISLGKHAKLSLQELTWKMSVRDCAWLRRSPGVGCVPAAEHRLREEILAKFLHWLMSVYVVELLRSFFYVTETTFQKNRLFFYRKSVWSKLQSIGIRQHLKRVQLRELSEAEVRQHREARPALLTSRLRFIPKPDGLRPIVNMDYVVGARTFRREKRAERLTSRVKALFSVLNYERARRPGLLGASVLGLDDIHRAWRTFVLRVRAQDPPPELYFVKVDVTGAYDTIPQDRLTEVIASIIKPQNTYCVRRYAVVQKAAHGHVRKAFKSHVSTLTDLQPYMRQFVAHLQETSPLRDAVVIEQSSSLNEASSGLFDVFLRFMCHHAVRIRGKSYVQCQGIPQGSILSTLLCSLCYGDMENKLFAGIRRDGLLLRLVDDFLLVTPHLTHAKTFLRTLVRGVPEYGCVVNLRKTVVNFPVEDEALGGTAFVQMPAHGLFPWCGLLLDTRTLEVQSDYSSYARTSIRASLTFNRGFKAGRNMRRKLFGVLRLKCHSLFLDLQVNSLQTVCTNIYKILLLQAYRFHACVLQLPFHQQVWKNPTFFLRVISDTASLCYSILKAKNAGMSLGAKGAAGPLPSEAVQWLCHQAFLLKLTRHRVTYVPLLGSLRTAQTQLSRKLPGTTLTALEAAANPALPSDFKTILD
T1 sequence (O60832 2-514 partner limits assumed): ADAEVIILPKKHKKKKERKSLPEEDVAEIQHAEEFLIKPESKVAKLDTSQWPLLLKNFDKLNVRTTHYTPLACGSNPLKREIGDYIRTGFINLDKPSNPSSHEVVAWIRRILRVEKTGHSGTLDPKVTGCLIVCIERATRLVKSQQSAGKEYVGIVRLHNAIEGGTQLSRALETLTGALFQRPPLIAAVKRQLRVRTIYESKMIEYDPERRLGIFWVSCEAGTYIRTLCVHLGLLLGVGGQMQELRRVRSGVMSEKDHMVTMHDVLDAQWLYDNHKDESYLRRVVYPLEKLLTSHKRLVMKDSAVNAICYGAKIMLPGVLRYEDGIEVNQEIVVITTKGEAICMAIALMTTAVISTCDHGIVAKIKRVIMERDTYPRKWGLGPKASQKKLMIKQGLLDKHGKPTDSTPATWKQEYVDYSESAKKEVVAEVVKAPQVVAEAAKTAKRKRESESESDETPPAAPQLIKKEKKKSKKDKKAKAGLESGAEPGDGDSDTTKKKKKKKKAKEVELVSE
T1 sequence (Q9NPE3 whole entry partner): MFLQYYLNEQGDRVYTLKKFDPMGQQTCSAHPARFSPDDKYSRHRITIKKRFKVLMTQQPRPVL
T1 sequence (Q9NX24 whole entry partner): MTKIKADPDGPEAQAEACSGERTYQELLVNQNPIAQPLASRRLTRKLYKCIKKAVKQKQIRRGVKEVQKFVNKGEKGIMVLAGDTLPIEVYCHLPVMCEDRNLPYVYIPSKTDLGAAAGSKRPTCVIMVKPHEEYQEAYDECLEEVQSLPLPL
T1 sequence (Q9NY12 whole entry partner): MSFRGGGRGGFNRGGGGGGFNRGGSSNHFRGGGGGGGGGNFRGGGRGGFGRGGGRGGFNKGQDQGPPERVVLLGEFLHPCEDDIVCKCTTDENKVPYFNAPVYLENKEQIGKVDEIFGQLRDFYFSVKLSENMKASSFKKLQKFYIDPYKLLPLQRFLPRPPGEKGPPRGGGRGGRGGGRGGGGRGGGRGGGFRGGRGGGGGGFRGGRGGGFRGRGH

**Q.** What does the source list for `COc1cc(OC)c2c(=O)c(OCC(=O)Nc3nnc(-c4ccc(F)cc4)o3)c(-c3cc(OC)c(OC)c(OC)c3)oc2c1` [A2, 2–(5,7-dimethoxy-4-oxo-2–(3,4,5-trimethoxyphenyl)-4H-chromen-3-yloxy)-N-(5–(4-fluorophenyl)-1,3,4-oxadiazol-2-yl)acetamide]?
**A.** IC50 [1]: 1370 ± 430 µM; melting point: 221 to 223 °C; IC50 [2, 7]: 8.07 ± 1.3 µM; IC50 [3, 8]: 25.1 ± 2.1 µM; IC50 [4, 9]: 56.9 ± 1.24 µM; IC50 [5, 10]: 17.3 ± 2.21 µM; IC50 [6, 11]: 11 ± 1.54 µM; IC50 (telomerase): 0.77 ± 0.13 µM

**Q.** Which IC50 [1] does the source give for `COc1cc(OC)c2c(=O)c(OCC(=O)Nc3nnc(-c4ccc(Cl)cc4)o3)c(-c3cc(OC)c(OC)c(OC)c3)oc2c1` [A5, N-(5–(4-chlorophenyl)-1,3,4-oxadiazol-2-yl)-2–(5,7-dimethoxy-4-oxo-2–(3,4,5-trimethoxyphenyl)-4H-chromen-3-yloxy)acetamide] here?
**A.** Its IC50 is 1990 ± 130 µM.

**Q.** What about the melting point of the same compound?
**A.** Its melting point is 227 to 229 °C.

**Q.** What about the IC50 [2, 7] of the same compound?
**A.** Its IC50 is greater than 100 µM.

**Q.** What about the IC50 [3, 8] of the same compound?
**A.** The IC50 was greater than 100 µM.

**Q.** And the IC50 [4, 9]?
**A.** Its IC50 is 25.4 ± 0.59 µM.

**Q.** And the IC50 [5, 10]?
**A.** Its IC50 is 15.2 ± 0.41 µM.

**Q.** And the IC50 [6, 11]?
**A.** The IC50 was 20.1 ± 0.62 µM.

**Q.** What about the IC50 (telomerase) of the same compound?
**A.** Its IC50 is 0.81 ± 0.13 µM.

**Q.** With `COc1cc(OC)c2c(=O)c(OCC(=O)Nc3nnc(-c4ccc(C(F)(F)F)cc4)o3)c(-c3cc(OC)c(OC)c(OC)c3)oc2c1` [A16, 2–(5,7-dimethoxy-4-oxo-2–(3,4,5-trimethoxyphenyl)-4H-chromen-3-yloxy)-N-(5–(4-(trifluoromethyl)phenyl)-1,3,4-oxadiazol-2-yl)acetamide] as the compound, how does the IC50 [1] read?
**A.** The IC50 was 900 ± 110 µM.

**Q.** What about the melting point of the same compound?
**A.** The melting point was 231 to 233 °C.

**Q.** And the IC50 [2, 7]?
**A.** Its IC50 is greater than 100 µM.

**Q.** What about the IC50 [3, 8] of the same compound?
**A.** Its IC50 is greater than 100 µM.

**Q.** And the IC50 [4, 9]?
**A.** Its IC50 is greater than 100 µM.

**Q.** What about the IC50 [5, 10] of the same compound?
**A.** Its IC50 is greater than 100 µM.

**Q.** And the IC50 [6, 11]?
**A.** The IC50 was 10.1 ± 0.52 µM.

**Q.** What about the IC50 (telomerase) of the same compound?
**A.** Its IC50 is 0.62 ± 0.11 µM.

**Q.** Which IC50 [1] does the source give for `COc1cc(OC)c2c(=O)c(OCC(=O)Nc3nnc(-c4cccc(OC(F)(F)F)c4)o3)c(-c3cc(OC)c(OC)c(OC)c3)oc2c1` [A20, 2–(5,7-dimethoxy-4-oxo-2–(3,4,5-trimethoxyphenyl)-4H-chromen-3-yloxy)-N-(5–(3-(trifluoromethoxy)phenyl)-1,3,4-oxadiazol-2-yl)acetamide] here?
**A.** Its IC50 is 620 ± 240 µM.

**Q.** And the melting point?
**A.** Its melting point is 221 to 223 °C.

**Q.** And the IC50 [2, 7]?
**A.** Its IC50 is greater than 100 µM.

**Q.** And the IC50 [3, 8]?
**A.** The IC50 was 19.5 ± 1 µM.

**Q.** What about the IC50 [4, 9] of the same compound?
**A.** The IC50 was 10.2 ± 0.65 µM.

**Q.** And the IC50 [5, 10]?
**A.** Its IC50 is 6.29 ± 0.36 µM.

**Q.** What about the IC50 [6, 11] of the same compound?
**A.** Its IC50 is 8.92 ± 0.69 µM.

**Q.** What about the IC50 (telomerase) of the same compound?
**A.** The IC50 was 0.92 ± 0.17 µM.

**Q.** Which IC50 [1] does the source give for `COc1cc(OC)c2c(=O)c(OCC(=O)Nc3nnc(-c4ccc(OC)c(OC)c4)o3)c(-c3cc(OC)c(OC)c(OC)c3)oc2c1` [A27, 2–(5,7-dimethoxy-4-oxo-2–(3,4,5-trimethoxyphenyl)-4H-chromen-3-yloxy)-N-(5–(3,4-dimethoxyphenyl)-1,3,4-oxadiazol-2-yl)acetamide] here?
**A.** The IC50 was 1380 ± 210 µM.

**Q.** What about the melting point of the same compound?
**A.** Its melting point is 220 to 222 °C.

**Q.** And the IC50 [2, 7]?
**A.** The IC50 was greater than 100 µM.

**Q.** What about the IC50 [3, 8] of the same compound?
**A.** The IC50 was greater than 100 µM.

**Q.** What about the IC50 [4, 9] of the same compound?
**A.** Its IC50 is greater than 100 µM.

**Q.** What about the IC50 [5, 10] of the same compound?
**A.** The IC50 was greater than 100 µM.

**Q.** And the IC50 [6, 11]?
**A.** Its IC50 is greater than 100 µM.

**Q.** And the IC50 (telomerase)?
**A.** The IC50 was 0.32 ± 0.07 µM.

**Q.** With `COc1cccc2c1C(=O)c1c(O)c3c(c(O)c1C2=O)C[C@@](O)(C(=O)CO)C[C@@H]3O[C@H]1C[C@H](N)[C@H](O)[C@H](C)O1` [ADM, Adriamycin, reference compound] as the compound, how does the IC50 [2, 7] read?
**A.** The IC50 was 0.79 ± 0.13 µM.

**Q.** And the IC50 [3, 8]?
**A.** Its IC50 is 0.51 ± 0.12 µM.

**Q.** What about the IC50 [4, 9] of the same compound?
**A.** Its IC50 is 0.82 ± 0.43 µM.

**Q.** What about the IC50 [5, 10] of the same compound?
**A.** Its IC50 is 0.42 ± 0.08 µM.

**Q.** And the IC50 [6, 11]?
**A.** Its IC50 is 0.58 ± 0.2 µM.

**Q.** With `COc1cc(OC)c2c(=O)c(OCC(=O)Nc3nnc(-c4ccc(OC)c(OC)c4)o3)c(-c3ccc(OC)c(OC)c3)oc2c1` [B27, N-(5–(3,4-dimethoxyphenyl)-1,3,4-oxadiazol-2-yl)-2–(2-(3,4-dimethoxyphenyl)-5,7-dimethoxy-4-oxo-4H-chromen-3-yloxy)acetamide] as the compound, how does the IC50 [1] read?
**A.** Its IC50 is 1670 ± 250 µM.

**Q.** What about the melting point of the same compound?
**A.** Its melting point is 151 to 153 °C.

**Q.** What about the IC50 [2, 7] of the same compound?
**A.** The IC50 was greater than 100 µM.

**Q.** What about the IC50 [3, 8] of the same compound?
**A.** Its IC50 is greater than 100 µM.

**Q.** And the IC50 [4, 9]?
**A.** Its IC50 is greater than 100 µM.

**Q.** And the IC50 [5, 10]?
**A.** The IC50 was greater than 100 µM.

**Q.** What about the IC50 [6, 11] of the same compound?
**A.** Its IC50 is greater than 100 µM.

**Q.** What about the IC50 (telomerase) of the same compound?
**A.** Its IC50 is 0.51 ± 0.1 µM.

**Q.** With `COc1cc(OC)c2c(=O)c(OCC(=O)Nc3nnc(-c4cccc5ccccc45)o3)c(-c3ccc(OC)c(OC)c3)oc2c1` [B28, 2–(2-(3,4-dimethoxyphenyl)-5,7-dimethoxy-4-oxo-4H-chromen-3-yloxy)-N-(5-(naphthalen-1-yl)-1,3,4-oxadiazol-2-yl)acetamide] as the compound, how does the melting point read?
**A.** The melting point was 230 to 232 °C.

**Q.** What about the IC50 (telomerase) of the same compound?
**A.** The IC50 was 1.19 ± 0.18 µM.

**Q.** With `COc1cc(OC)c2c(=O)c(OCC(=O)Nc3nnc(-c4ccc5c(c4)OCCO5)o3)c(-c3ccc(OC)c(OC)c3)oc2c1` [B29, N-(5–(2,3-dihydrobenzo[b][1, 4]dioxin-6-yl)-1,3,4-oxadiazol-2-yl)-2–(2-(3,4-dimethoxyphenyl)-5,7-dimethoxy-4-oxo-4H-chromen-3-yloxy)acetamide] as the compound, how does the melting point read?
**A.** Its melting point is 228 to 230 °C.

**Q.** And the IC50 (telomerase)?
**A.** The IC50 was 2.98 ± 0.27 µM.

**Q.** What does the source list for `COc1cc(OC)c2c(=O)c(OCC(=O)Nc3nnc(-c4cccc(OCc5ccccc5)c4)o3)c(-c3ccc(OC)c(OC)c3)oc2c1` [B30, N-(5–(3-(benzyloxy)phenyl)-1,3,4-oxadiazol-2-yl)-2–(2-(3,4-dimethoxyphenyl)-5,7-dimethoxy-4-oxo-4H-chromen-3-yloxy)acetamide]?
**A.** melting point: 156 to 158 °C; IC50 (telomerase): > 60 µM

**Q.** For `COc1cc(OC)c2c(=O)c(OCC(=O)Nc3nnc(-c4ccco4)o3)c(-c3ccc(OC)c(OC)c3)oc2c1` [B31, 2–(2-(3,4-dimethoxyphenyl)-5,7-dimethoxy-4-oxo-4H-chromen-3-yloxy)-N-(5-(furan-2-yl)-1,3,4-oxadiazol-2-yl)acetamide], which melting point is on record?
**A.** Its melting point is 233 to 235 °C.

**Q.** And the IC50 (telomerase)?
**A.** Its IC50 is 2.82 ± 0.25 µM.

**Q.** With `COc1cc(OC)c2c(=O)c(OCC(=O)Nc3nnc(-c4cccs4)o3)c(-c3ccc(OC)c(OC)c3)oc2c1` [B32, 2–(2-(3,4-dimethoxyphenyl)-5,7-dimethoxy-4-oxo-4H-chromen-3-yloxy)-N-(5-(thiophen-2-yl)-1,3,4-oxadiazol-2-yl)acetamide] as the compound, how does the melting point read?
**A.** The melting point was 238 to 240 °C.

**Q.** What about the IC50 (telomerase) of the same compound?
**A.** The IC50 was 3.75 ± 0.39 µM.

**Q.** What does the source list for `COc1cc(OC)c2c(=O)c(OCC(=O)Nc3nnc(/C=C/c4ccccc4)o3)c(-c3ccc(OC)c(OC)c3)oc2c1` [B33, (E)-2–(2-(3,4-dimethoxyphenyl)-5,7-dimethoxy-4-oxo-4H-chromen-3-yloxy)-N-(5-styryl-1,3,4-oxadiazol-2-yl)acetamide]?
**A.** IC50 [1]: 1010 ± 140 µM; melting point: 226 to 228 °C; IC50 [2, 7]: > 100 µM; IC50 [3, 8]: > 100 µM; IC50 [4, 9]: > 100 µM; IC50 [5, 10]: > 100 µM; IC50 [6, 11]: > 100 µM; IC50 (telomerase): 0.97 ± 0.2 µM

**Q.** Which results are given for `C/C(=C\C(=O)Nc1ccccc1C(=O)O)c1ccc2ccccc2c1` [BIBR1532, reference compound]?
**A.** IC50 [2, 12]: > 100 µM; IC50 [3, 12]: > 100 µM; IC50 [4, 12]: > 100 µM; IC50 [5, 12]: > 100 µM; IC50 [6, 12]: 57.58 ± 0.21 µM
